The NIST ThermoML archive (doi:10.1021/je0340809)

Assay: xn = mol fraction of the nth substance listed
Details: 101.3 kPa, Liquid

CN1CCCC1=O [N-methylpyrrolidone] + O
Details	mass density [kg/m3]	speed of sound [m/s]	viscosity [mPa·s]
298.15 K, x2 = 0.0522	1029.55	1548.8	1.721
298.15 K, x2 = 0.1684	1032.9	1561	1.985
298.15 K, x2 = 0.2465	1035.15	1579.5	2.147
298.15 K, x2 = 0.3481	1038.13	1616.8	2.535
298.15 K, x2 = 0.4534	1041.65	1653.8	3.346
298.15 K, x2 = 0.5018	1043.41	1667.7	3.838
298.15 K, x2 = 0.5493	1045.11	1682	4.338
298.15 K, x2 = 0.6504	1047.71	1711.3	5.159
298.15 K, x2 = 0.752	1046.06	1738.2	5.071
298.15 K, x2 = 0.8536	1035.21	1748.1	3.65
298.15 K, x2 = 0.8742	1031.43	1738.4	3.224
298.15 K, x2 = 0.8849	1029.24	1730.9	2.992
298.15 K, x2 = 0.8996	1025.97	1716.8	2.668
298.15 K, x2 = 0.9257	1019.43	1681.1	2.093
298.15 K, x2 = 0.9368	1016.38	1661	1.857
298.15 K, x2 = 0.9557	1010.88	1621.2	1.487
298.15 K, x2 = 0.9641	1008.33	1600.8	1.338
298.15 K, x2 = 0.9754	1004.82	1571.3	1.16
298.15 K, x2 = 0.99	1000.21	1529.1	0.978
308.15 K, x2 = 0.0522	1020.49	1521.3	1.405
308.15 K, x2 = 0.1684	1023.58	1533.3	1.588
308.15 K, x2 = 0.2465	1025.1	1549.9	1.702
308.15 K, x2 = 0.3481	1028.58	1578.3	1.979
308.15 K, x2 = 0.4534	1032.02	1610.1	2.567
308.15 K, x2 = 0.5018	1033.74	1624.8	2.925
308.15 K, x2 = 0.5493	1035.39	1639.5	3.289
308.15 K, x2 = 0.6504	1037.97	1672	3.885
308.15 K, x2 = 0.752	1036.73	1702.6	3.814
308.15 K, x2 = 0.8536	1027.32	1707.3	2.76
308.15 K, x2 = 0.8742	1024.02	1700.3	2.446
308.15 K, x2 = 0.8849	1022.1	1694.9	2.273
308.15 K, x2 = 0.8996	1019.23	1685.4	2.034
308.15 K, x2 = 0.9257	1013.52	1661.1	1.609
308.15 K, x2 = 0.9368	1010.86	1647.4	1.435
308.15 K, x2 = 0.9557	1006.06	1618.8	1.16
308.15 K, x2 = 0.9641	1003.83	1603.6	1.051
308.15 K, x2 = 0.9754	1000.77	1580.6	0.92
308.15 K, x2 = 0.99	996.769	1546.1	0.785
318.15 K, x2 = 0.0522	1011.19	1480.9	1.232
318.15 K, x2 = 0.1684	1014.09	1493	1.35
318.15 K, x2 = 0.2465	1016.08	1508.9	1.429
318.15 K, x2 = 0.3481	1018.81	1535.9	1.613
318.15 K, x2 = 0.4534	1022.08	1566.5	2.03
318.15 K, x2 = 0.5018	1023.72	1580.9	2.287
318.15 K, x2 = 0.5493	1025.31	1595.4	2.547
318.15 K, x2 = 0.6504	1027.9	1628.2	2.973
318.15 K, x2 = 0.752	1027.12	1661.2	2.905
318.15 K, x2 = 0.8536	1019.09	1674.5	2.117
318.15 K, x2 = 0.8742	1016.22	1670.7	1.882
318.15 K, x2 = 0.8849	1014.55	1667.3	1.754
318.15 K, x2 = 0.8996	1012.06	1660.9	1.576
318.15 K, x2 = 0.9257	1007.08	1643.6	1.261
318.15 K, x2 = 0.9368	1004.77	1633.5	1.13
318.15 K, x2 = 0.9557	1000.59	1611.9	0.928
318.15 K, x2 = 0.9641	998.66	1600.4	0.845
318.15 K, x2 = 0.9754	996.013	1582.7	0.747
318.15 K, x2 = 0.99	992.557	1556.1	0.645
328.15 K, x2 = 0.0522	1002.19	1451.9	1.124
328.15 K, x2 = 0.1684	1004.9	1463.8	1.194
328.15 K, x2 = 0.2465	1006.77	1478.8	1.234
328.15 K, x2 = 0.3481	1009.34	1504.2	1.357
328.15 K, x2 = 0.4534	1012.42	1533.2	1.647
328.15 K, x2 = 0.5018	1013.98	1547.1	1.827
328.15 K, x2 = 0.5493	1015.5	1561.1	2.011
328.15 K, x2 = 0.6504	1018.05	1593.5	2.308
328.15 K, x2 = 0.752	1017.63	1627.4	2.241
328.15 K, x2 = 0.8536	1010.77	1646.4	1.645
328.15 K, x2 = 0.8742	1008.28	1645	1.47
328.15 K, x2 = 0.8849	1006.83	1643.2	1.374
328.15 K, x2 = 0.8996	1004.66	1639.2	1.24
328.15 K, x2 = 0.9257	1000.32	1627.2	1.004
328.15 K, x2 = 0.9368	998.296	1619.9	0.907
328.15 K, x2 = 0.9557	994.66	1603.9	0.753
328.15 K, x2 = 0.9641	992.982	1595.2	0.692
328.15 K, x2 = 0.9754	990.687	1581.7	0.618
328.15 K, x2 = 0.99	987.705	1561.2	0.541
338.15 K, x2 = 0.0522	993.182	1410.7	0.987
338.15 K, x2 = 0.1684	995.706	1422.8	1.026
338.15 K, x2 = 0.2465	997.455	1437.4	1.048
338.15 K, x2 = 0.3481	999.87	1461.9	1.129
338.15 K, x2 = 0.4534	1002.78	1490.2	1.332
338.15 K, x2 = 0.5018	1004.25	1504	1.46
338.15 K, x2 = 0.5493	1005.71	1518	1.591
338.15 K, x2 = 0.6504	1008.2	1551	1.799
338.15 K, x2 = 0.752	1008.09	1587.1	1.74
338.15 K, x2 = 0.8536	1002.25	1613.3	1.292
338.15 K, x2 = 0.8742	1000.1	1614.4	1.161
338.15 K, x2 = 0.8849	998.836	1614.4	1.089
338.15 K, x2 = 0.8996	996.948	1613	0.99
338.15 K, x2 = 0.9257	993.171	1602.6	0.813
338.15 K, x2 = 0.9368	991.416	1602.1	0.74
338.15 K, x2 = 0.9557	988.261	1591.8	0.627
338.15 K, x2 = 0.9641	986.808	1585.9	0.58
338.15 K, x2 = 0.9754	984.827	1576.7	0.524
338.15 K, x2 = 0.99	982.266	1562.4	0.467
